From PubChem BioAssay (NCI)
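In this assay, cells in 96-well plates receive the compound at five concentrations for 48 hours. Endpoints are linearly interpolated between the surrounding concentrations. TGI denotes the concentration required for complete inhibition of growth.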

Key:
Assay in all cases: DTP human tumour cell line panel, 48 h
786-0 renal = tested on: 786-0 renal
A498 renal = tested on: A498 renal
A549 NSCLC = tested on: A549 NSCLC
ACHN renal = tested on: ACHN renal
CAKI-1 renal = tested on: CAKI-1 renal
CCRF-CEM leukemia = tested on: CCRF-CEM leukemia
COLO 205 colon = tested on: COLO 205 colon
DLD-1 colon = tested on: DLD-1 colon
DMS 273 small cell lung = tested on: DMS 273 small cell lung
EKVX NSCLC = tested on: EKVX NSCLC
HCC-2998 colon = tested on: HCC-2998 colon
HCT-15 colon = tested on: HCT-15 colon
HL-60(TB) leukemia = tested on: HL-60(TB) leukemia
HOP-18 NSCLC = tested on: HOP-18 NSCLC
HOP-92 NSCLC = tested on: HOP-92 NSCLC
HT29 colon = tested on: HT29 colon
IGROV1 ovarian = tested on: IGROV1 ovarian
K-562 leukemia = tested on: K-562 leukemia
KM12 colon = tested on: KM12 colon
KM20L2 colon = tested on: KM20L2 colon
LOX IMVI melanoma = tested on: LOX IMVI melanoma
LXFL 529 NSCLC = tested on: LXFL 529 NSCLC
M14 melanoma = tested on: M14 melanoma
M19-MEL melanoma = tested on: M19-MEL melanoma
MALME-3M melanoma = tested on: MALME-3M melanoma
MOLT-4 leukemia = tested on: MOLT-4 leukemia
NCI-H226 lung = tested on: NCI-H226 lung
NCI-H23 lung = tested on: NCI-H23 lung
NCI-H460 lung = tested on: NCI-H460 lung
NCI-H522 lung = tested on: NCI-H522 lung
OVCAR-3 ovarian = tested on: OVCAR-3 ovarian
OVCAR-4 ovarian = tested on: OVCAR-4 ovarian
OVCAR-5 ovarian = tested on: OVCAR-5 ovarian
OVCAR-8 ovarian = tested on: OVCAR-8 ovarian
RPMI-8226 leukemia = tested on: RPMI-8226 leukemia
RXF 393 renal = tested on: RXF 393 renal
RXF-631 renal = tested on: RXF-631 renal
SF-268 CNS = tested on: SF-268 CNS
SF-295 CNS = tested on: SF-295 CNS
SF-539 CNS = tested on: SF-539 CNS
SK-MEL-2 melanoma = tested on: SK-MEL-2 melanoma
SK-MEL-28 melanoma = tested on: SK-MEL-28 melanoma
SK-MEL-5 melanoma = tested on: SK-MEL-5 melanoma
SK-OV-3 ovarian = tested on: SK-OV-3 ovarian
SN12C renal = tested on: SN12C renal
SNB-19 CNS = tested on: SNB-19 CNS
SNB-75 CNS = tested on: SNB-75 CNS
SW-620 colon = tested on: SW-620 colon
TK-10 renal = tested on: TK-10 renal
U251 CNS = tested on: U251 CNS
UACC-257 melanoma = tested on: UACC-257 melanoma
UACC-62 melanoma = tested on: UACC-62 melanoma
UO-31 renal = tested on: UO-31 renal
XF 498 CNS = tested on: XF 498 CNS
DMS 114 small cell lung = tested on: DMS 114 small cell lung
SNB-78 CNS = tested on: SNB-78 CNS

Measured: TGI

Cc1cccc(N(CC(=O)O)S(=O)(=O)c2ccccc2)c1
not listed: DMS 114 small cell lung | SNB-78 CNS
> 100 µM: all other assays above

O=C(NN1C(=O)CSC1c1cccc(F)c1)c1ccncc1 (configuration not stated)
not listed: 786-0 renal | DLD-1 colon | HOP-18 NSCLC | HOP-92 NSCLC | M19-MEL melanoma | NCI-H226 lung | NCI-H460 lung | OVCAR-3 ovarian
> 100 µM: all other assays above
